# Source: ChEMBL document CHEMBL4261541, “Synthesis and evaluation of oxindoles as promising inhibitors of the immunosuppressive enzyme indoleamine 2,3-dioxygenase 1” (Medchemcomm, 2017)
# Activity calls are given as the source filed them. No cut-off for these calls is given here.
# Experiments:
# [1] = biological target: T1, Indoleamine 2,3-dioxygenase 1 (Homo sapiens, UniProt P14902); experiment: Inhibition of recombinant human IDO1 assessed as reduction in conversion of L-tryptophan to kynurenine by methylene blue dye based spectrometric method
# Target sequence in this assay (P14902 whole entry): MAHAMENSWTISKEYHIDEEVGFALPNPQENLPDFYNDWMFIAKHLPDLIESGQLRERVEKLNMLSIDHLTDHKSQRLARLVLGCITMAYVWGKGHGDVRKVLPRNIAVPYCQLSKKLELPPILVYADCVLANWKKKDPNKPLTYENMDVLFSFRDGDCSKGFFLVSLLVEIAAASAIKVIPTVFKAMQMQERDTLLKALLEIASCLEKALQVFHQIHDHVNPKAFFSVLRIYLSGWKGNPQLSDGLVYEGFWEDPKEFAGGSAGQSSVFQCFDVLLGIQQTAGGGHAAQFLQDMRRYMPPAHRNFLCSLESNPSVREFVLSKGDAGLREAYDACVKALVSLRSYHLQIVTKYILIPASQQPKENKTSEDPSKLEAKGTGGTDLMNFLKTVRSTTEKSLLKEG
# [2] = biological target: Tryptophan 2,3-dioxygenase (Homo sapiens, UniProt P48775); experiment: Inhibition of recombinant human TDO assessed as reduction in conversion of L-tryptophan to kynurenine by methylene blue dye based spectrometric method
# Sequence of Tryptophan 2,3-dioxygenase (P48775 whole entry): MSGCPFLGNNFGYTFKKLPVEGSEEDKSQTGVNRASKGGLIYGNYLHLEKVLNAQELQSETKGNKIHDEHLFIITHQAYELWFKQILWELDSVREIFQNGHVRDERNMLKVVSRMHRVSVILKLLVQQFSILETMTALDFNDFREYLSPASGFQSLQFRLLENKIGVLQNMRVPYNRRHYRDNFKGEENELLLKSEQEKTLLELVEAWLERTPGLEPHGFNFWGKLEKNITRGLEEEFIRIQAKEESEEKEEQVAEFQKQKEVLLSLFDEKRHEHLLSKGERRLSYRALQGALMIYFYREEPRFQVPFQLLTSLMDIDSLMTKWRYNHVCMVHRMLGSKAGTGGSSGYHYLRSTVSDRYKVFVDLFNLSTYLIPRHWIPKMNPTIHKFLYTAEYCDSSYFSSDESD
# Homo sapiens = species on record: Homo sapiens; experiment: Selectivity ratio of IC50 for human TDO to IC50 for human IDO1
# [3] = biological target: T1, Indoleamine 2,3-dioxygenase 1; experiment: Binding affinity to human ferric-IDO1 assessed as blue shift in soret peak at 50 uM by UV-Visible spectrophotometric method
# Target sequence in this assay (P14902 whole entry, looked up): as the sequence (P14902 whole entry) above
# [4] = biological target: T1, Indoleamine 2,3-dioxygenase 1; experiment: Binding affinity to human ferrous-IDO1 assessed as blue shift in soret peak at 50 uM by UV-Visible spectrophotometric method
# Target sequence in this assay (P14902 whole entry, looked up): as the sequence (P14902 whole entry) above
# [5] = biological target: T1, Indoleamine 2,3-dioxygenase 1; experiment: Inhibition of IFNgamma-stimulated IDO1 in human MDA-MB-231 cells preincubated for 4 hrs followed by tryptophan addition measured after 5 hrs by methylene blue dye based spectrophotometric method; type: cell-based
# Target sequence in this assay (P14902 whole entry): as above
# MDA-MB-231 [6] = experiment: Cytotoxicity against human MDA-MB-231 cells assessed as reduction in cell viability at 2 times IDO1 inhibitory IC50 after 48 hrs by MTT assay; type: functional, cell-based
# A549 = experiment: Cytotoxicity against human A549 cells assessed as reduction in cell viability at 2 times IDO1 inhibitory IC50 after 48 hrs by MTT assay; type: functional, cell-based
# HeLa = experiment: Cytotoxicity against human HeLa cells assessed as reduction in cell viability at 2 times IDO1 inhibitory IC50 after 48 hrs by MTT assay; type: functional, cell-based
# J774.A1 = experiment: Cytotoxicity against mouse J774A.1 cells assessed as reduction in cell viability at 2 times IDO1 inhibitory IC50 after 48 hrs by MTT assay; type: cell-based; details: j774.a1, 48 h
# MDA-MB-231 [7] = experiment: Cytotoxicity against human MDA-MB-231 cells assessed as induction of morphological changes at 2 times IDO1 inhibitory IC50 after 48 hrs by cytell imaging analysis; type: functional, cell-based
# [8] = biological target: T1, Indoleamine 2,3-dioxygenase 1; experiment: Competitive inhibition of recombinant human IDO1 assessed as reduction in conversion of L-tryptophan to N-formylkynurenine at 200 to 1500 nM by methylene blue dye based spectrometric method
# Target sequence in this assay (P14902 whole entry, looked up): as the sequence (P14902 whole entry) above
# [9] = biological target: T1, Indoleamine 2,3-dioxygenase 1; experiment: Uncompetitive inhibition of recombinant human IDO1 assessed as reduction in conversion of L-tryptophan to N-formylkynurenine at 200 to 1500 nM by methylene blue dye based spectrometric method
# Target sequence in this assay (P14902 whole entry, looked up): as the sequence (P14902 whole entry) above
smiles,measurement,setting,value
O=C1Nc2ccccc2/C1=N/Nc1ccccc1C(F)(F)F,IC50,[1],1.58 µM
same,IC50,[2],38.3 µM
same,Ratio IC50,Homo sapiens,24
Cc1ccc(S(=O)(=O)N/N=C2\C(=O)Nc3ccccc32)cc1,IC50,[1],1.78 µM
same,IC50,[2],52.9 µM
same,Ratio IC50,Homo sapiens,30
CC(=O)N[C@@H](CC1C(=O)Nc2ccccc21)C(=O)O (mixture of isomers),IC50,[1],0.62 µM
same,Activity,[3],Active
same,inhibition,[4],Active
same,EC50,[5],0.48 µM
same,Activity,MDA-MB-231 [6],inactive
same,Activity,A549,inactive
same,Activity,HeLa,inactive
same,Activity,J774.A1,Non-Toxic
same,Activity,MDA-MB-231 [7],inactive
same,inhibition,[8],Active
same,IC50,[2],83.5 µM
same,Ratio IC50,Homo sapiens,135
CC(=O)/C=C1\C(=O)Nc2ccc(Cl)cc21,IC50,[1],0.36 µM
same,EC50,[5],0.46 µM
same,Activity,MDA-MB-231 [6],inactive
same,Activity,A549,inactive
same,Activity,HeLa,inactive
same,Activity,J774.A1,Non-Toxic
same,Activity,MDA-MB-231 [7],inactive
same,inhibition,[8],Active
same,IC50,[2],54.7 µM
same,Ratio IC50,Homo sapiens,152
CC(=O)CC1(O)C(=O)Nc2ccc(Cl)cc21 (stereo unspecified),IC50,[1],1.97 µM
CC(=O)CC(=O)/C=C1\C(=O)Nc2ccc(Cl)cc21,IC50,[1],0.19 µM
same,Activity,[3],Active
same,inhibition,[4],Active
same,EC50,[5],0.33 µM
same,Activity,MDA-MB-231 [6],inactive
same,Activity,A549,inactive
same,Activity,HeLa,inactive
same,Activity,J774.A1,Non-Toxic
same,Activity,MDA-MB-231 [7],inactive
same,inhibition,[8],Active
same,IC50,[2],39.9 µM
same,Ratio IC50,Homo sapiens,210
CC(C)(C)OC(=O)N[C@@H](CC1C(=O)Nc2ccccc21)C(=O)O (stereo partly specified),IC50,[1],1.95 µM
N[C@@H](CC1C(=O)Nc2ccccc21)C(=O)O (stereo partly specified),IC50,[1],3.39 µM
same,IC50,[2],60.2 µM
same,Ratio IC50,Homo sapiens,18
CC(=O)/C=C1\C(=O)Nc2ccccc21,IC50,[1],1.69 µM
O=C1Nc2ccccc2/C1=N/c1ccccc1Br,IC50,[1],1.24 µM
same,inhibition,[8],Active
same,IC50,[2],46.2 µM
same,Ratio IC50,Homo sapiens,37
NC(=O)[C@@H](N)CC1C(=O)Nc2ccccc21 (stereo partly specified),IC50,[1],8.33 µM
O=C(NCCC1C(=O)Nc2ccccc21)OCc1ccccc1 (stereo unspecified),IC50,[1],2.31 µM
same,IC50,[2],58.3 µM
same,Ratio IC50,Homo sapiens,25
O=C1CCCC(=O)C1C1(O)C(=O)Nc2ccccc21 (stereo unspecified),IC50,[1],4.73 µM
Cn1cc(C[C@H](N)C(=O)O)c2ccccc21,Activity,MDA-MB-231 [6],inactive
same,Activity,MDA-MB-231 [7],inactive
O=C1Nc2ccccc2/C1=N/Nc1cccc(Cl)c1,Ratio IC50,Homo sapiens,31
CCOC(=O)C(C(=O)OCC)=C1C(=O)Nc2ccccc21,IC50,[1],0.93 µM
same,IC50,[2],71 µM
same,Ratio IC50,Homo sapiens,76
O=C1N=c2ccccc2=C1NNc1cccc(Cl)c1,IC50,[1],1.51 µM
same,IC50,[2],46.8 µM
NCCC1C(=O)Nc2ccccc21 (stereo unspecified),IC50,[1],3.97 µM
CC(=O)CC(=O)CC1(O)C(=O)Nc2ccccc21 (stereo unspecified),IC50,[1],0.45 µM
same,Activity,[3],9 nm
same,inhibition,[4],Active
same,EC50,[5],0.49 µM
same,Activity,MDA-MB-231 [6],inactive
same,Activity,A549,inactive
same,Activity,HeLa,inactive
same,Activity,J774.A1,Non-Toxic
same,Activity,MDA-MB-231 [7],inactive
same,inhibition,[8],Active
same,IC50,[2],56.1 µM
same,Ratio IC50,Homo sapiens,124
O=C1Nc2ccccc2/C1=N\c1ccc(Cl)cc1,IC50,[1],2.56 µM
N[C@@H](CC1C(=O)Nc2ccccc21)C(=O)OCc1ccccc1 (stereo partly specified),IC50,[1],13.6 µM
O=C(N[C@@H](CC1C(=O)Nc2ccccc21)C(=O)O)OCc1ccccc1 (stereo partly specified),IC50,[1],1.28 µM
same,Activity,[3],Active
same,inhibition,[4],Active
same,EC50,[5],1.26 µM
same,Activity,MDA-MB-231 [6],inactive
same,Activity,A549,inactive
same,Activity,HeLa,inactive
same,Activity,J774.A1,Non-Toxic
same,Activity,MDA-MB-231 [7],inactive
same,inhibition,[8],Active
same,IC50,[2],27.2 µM
same,Ratio IC50,Homo sapiens,21
CC(=O)CC(=O)CC1(O)C(=O)Nc2ccc(Cl)cc21 (stereo unspecified),IC50,[1],0.89 µM
same,inhibition,[9],Active
O=C1Nc2ccccc2/C1=N/Nc1cccc([N+](=O)[O-])c1,IC50,[1],3.74 µM
O=C(N[C@@H](CC1C(=O)Nc2ccccc21)C(=O)OCc1ccccc1)OCc1ccccc1 (stereo partly specified),IC50,[1],2.25 µM
O=C1Nc2ccccc2/C1=N/Nc1ccc(Cl)cc1,IC50,[1],0.63 µM
same,EC50,[5],0.42 µM
same,Activity,MDA-MB-231 [6],inactive
same,Activity,A549,inactive
same,Activity,HeLa,inactive
same,Activity,J774.A1,Non-Toxic
same,Activity,MDA-MB-231 [7],inactive
same,inhibition,[9],Active
same,IC50,[2],53.4 µM
same,Ratio IC50,Homo sapiens,85
O=C1Nc2ccccc2C1=NNc1ccccc1,IC50,[1],1.95 µM
O=C(N[C@@H](CC1C(=O)Nc2ccccc21)C(=O)O)c1ccccc1 (mixture of isomers),IC50,[1],1.58 µM
